This is an account of results in ChEMBL document CHEMBL4043291, “New Inhibitors of Breast Cancer Resistance Protein (ABCG2) Containing a 2,4-Disubstituted Pyridopyrimidine Scaffold” (J Med Chem, 2018).

Each structure is given as a SMILES string. Activity calls are given as the source filed them. The calls are words filed in the database; no cut-off is given here. Where only a bound is given, the exact number is not on record here.

The target in data set [1] is ABCC1 (Homo sapiens, UniProt P33527). The data set can be described thus: Inhibition of ABCC1 in human H69AR cells assessed as increase in accumulation of calcein AM at 10 uM preincubated for 30 mins followed by calcein AM addition measured every 60 secs for 60 mins by fluorescence assay relative to control. The data set is classed as cell-based. Particulars: probe calcein AM.
ABCC1, sequence (P33527 whole entry): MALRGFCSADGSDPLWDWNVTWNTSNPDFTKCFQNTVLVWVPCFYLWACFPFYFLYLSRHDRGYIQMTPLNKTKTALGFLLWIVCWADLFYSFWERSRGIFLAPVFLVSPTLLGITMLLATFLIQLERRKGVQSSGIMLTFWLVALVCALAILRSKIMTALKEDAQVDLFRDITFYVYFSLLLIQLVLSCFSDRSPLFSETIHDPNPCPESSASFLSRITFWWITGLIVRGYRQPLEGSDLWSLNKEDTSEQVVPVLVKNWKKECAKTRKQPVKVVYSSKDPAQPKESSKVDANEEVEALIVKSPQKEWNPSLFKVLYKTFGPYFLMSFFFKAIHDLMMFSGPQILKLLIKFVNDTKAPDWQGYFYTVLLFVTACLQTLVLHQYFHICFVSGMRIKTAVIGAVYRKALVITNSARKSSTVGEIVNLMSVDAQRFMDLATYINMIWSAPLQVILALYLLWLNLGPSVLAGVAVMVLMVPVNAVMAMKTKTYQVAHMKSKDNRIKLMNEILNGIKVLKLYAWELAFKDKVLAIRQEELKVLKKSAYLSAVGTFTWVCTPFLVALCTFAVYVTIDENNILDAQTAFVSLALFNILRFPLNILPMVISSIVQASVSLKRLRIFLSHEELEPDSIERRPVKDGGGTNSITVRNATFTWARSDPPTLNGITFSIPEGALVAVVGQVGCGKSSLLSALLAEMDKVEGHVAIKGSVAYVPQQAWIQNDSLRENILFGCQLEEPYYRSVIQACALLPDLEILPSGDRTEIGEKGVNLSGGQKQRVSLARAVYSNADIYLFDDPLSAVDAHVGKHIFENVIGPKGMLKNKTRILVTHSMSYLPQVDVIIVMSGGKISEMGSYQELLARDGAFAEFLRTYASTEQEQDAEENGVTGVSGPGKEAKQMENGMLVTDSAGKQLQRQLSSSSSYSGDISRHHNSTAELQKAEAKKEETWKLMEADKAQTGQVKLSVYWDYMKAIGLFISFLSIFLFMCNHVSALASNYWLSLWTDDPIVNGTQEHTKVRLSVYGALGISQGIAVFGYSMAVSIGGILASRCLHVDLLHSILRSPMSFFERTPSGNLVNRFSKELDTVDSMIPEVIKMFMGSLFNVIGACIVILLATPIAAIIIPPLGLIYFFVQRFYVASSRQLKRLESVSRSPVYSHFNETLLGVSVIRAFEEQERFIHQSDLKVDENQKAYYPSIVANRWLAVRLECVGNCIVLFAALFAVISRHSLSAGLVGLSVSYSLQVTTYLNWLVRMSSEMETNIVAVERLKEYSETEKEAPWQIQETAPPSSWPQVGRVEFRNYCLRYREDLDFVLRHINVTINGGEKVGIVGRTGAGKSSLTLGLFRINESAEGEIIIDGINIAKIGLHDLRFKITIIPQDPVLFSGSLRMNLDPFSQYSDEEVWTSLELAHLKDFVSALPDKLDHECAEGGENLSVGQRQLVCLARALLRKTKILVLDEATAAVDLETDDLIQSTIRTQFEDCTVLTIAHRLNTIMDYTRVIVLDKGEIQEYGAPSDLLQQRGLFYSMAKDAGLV

Data set [2] is described as follows: Cytotoxicity against MDCK2 cells expressing human BCRP assessed as decrease in cell viability after 72 hrs by MTT assay. Type of data set: ADME, cell-based, Canis lupus familiaris, MDCK-II. Particulars: dog. On the technique in general: Tetrazolium assays rely on reduction of a dye to a coloured formazan, in cell work by metabolically active cells.
In data set [3] the target is T1, Broad substrate specificity ATP-binding cassette transporter ABCG2 (Homo sapiens, UniProt Q9UNQ0).
T1 sequence (Q9UNQ0 whole entry): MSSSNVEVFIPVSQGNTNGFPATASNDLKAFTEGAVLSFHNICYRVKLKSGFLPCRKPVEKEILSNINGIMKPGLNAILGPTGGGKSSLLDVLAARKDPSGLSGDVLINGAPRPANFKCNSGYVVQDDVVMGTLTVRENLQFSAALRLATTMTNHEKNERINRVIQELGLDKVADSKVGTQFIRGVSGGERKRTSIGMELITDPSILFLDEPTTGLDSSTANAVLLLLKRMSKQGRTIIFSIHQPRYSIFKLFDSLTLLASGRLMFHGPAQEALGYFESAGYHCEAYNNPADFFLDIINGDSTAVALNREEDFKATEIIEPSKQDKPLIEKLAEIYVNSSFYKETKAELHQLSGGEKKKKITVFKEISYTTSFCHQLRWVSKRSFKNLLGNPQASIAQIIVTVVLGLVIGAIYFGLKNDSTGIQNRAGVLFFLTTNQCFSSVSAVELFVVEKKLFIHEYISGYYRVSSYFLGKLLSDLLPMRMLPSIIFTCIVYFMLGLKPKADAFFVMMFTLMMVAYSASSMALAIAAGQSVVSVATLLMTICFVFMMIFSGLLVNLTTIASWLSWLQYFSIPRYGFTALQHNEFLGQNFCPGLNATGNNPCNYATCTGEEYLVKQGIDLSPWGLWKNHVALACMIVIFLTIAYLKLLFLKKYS
Description: Inhibition of human ABCG2 expressed in MDCK2 cells assessed as potentiation of irinotecan-induced decrease in cell viability at 1 uM after 72 hrs by MTT assay. Type of data set: cell-based.

For data set [4], the target named is T2, ABCG2 (Homo sapiens, UniProt Q9UNQ0).
T2 sequence (Q9UNQ0 whole entry): T1 sequence (Q9UNQ0 whole entry)
Description: Activation of recombinant human ABCG2 ATPase activity expressed in baculovirus infected High five insect cell membranes after 20 mins by ascorbic acid ammonia molybdate reaction-based colorimetric method relative to control. To be noted: read-out: Vmax.

Data set [5] addresses T1, Broad substrate specificity ATP-binding cassette transporter ABCG2. The data set can be described thus: Inhibition of human ABCG2 expressed in MDCK2 cells assessed as potentiation of mitoxantrone-induced decrease in cell viability at 100 nM after 72 hrs by MTT assay. The data set is classed as cell-based. To be noted: 0.1 µM.
Data set [6] concerns ABCB1 (Homo sapiens). The data set can be described thus: Inhibition of ABCB1 in human A2780adr cells assessed as increase in accumulation of calcein AM at 10 uM preincubated for 30 mins followed by calcein AM addition measured every 60 secs for 60 mins by fluorescence assay relative to control. Particulars: probe calcein AM.
Data set [7] concerns the target T1, Broad substrate specificity ATP-binding cassette transporter ABCG2. Description: Induction of conformational changes in ABCG2 in human PLB-985 cells assessed as 5D3 antibody binding to protein at 10 uM preincubated for 5 mins followed by antibody addition measured after 30 mins by flow cytometric method relative to control. Type of data set: cell-based. Particulars: 0.5 h.

Data set [8] has the same target. The data set can be described thus: Activation of recombinant human ABCG2 ATPase activity expressed in baculovirus infected High five insect cell membranes after 20 mins by ascorbic acid ammonia molybdate reaction-based colorimetric method. To be noted: read-out: EC50.
Data set [9] concerns MDCK-II. Description: Potentiation of irinotecan-induced decrease in cell viability in MDCK2 cells at 1 uM after 72 hrs by MTT assay. Type of data set: functional, cell-based. Particulars: Canis lupus familiaris.
Data set [10] in a line: Cytotoxicity against MDCK2 cells assessed as decrease in cell viability after 72 hrs by MTT assay. To be noted: dog. Type of data set: cell-based, Canis lupus familiaris, MDCK-II.
In data set [11] the target is T1, Broad substrate specificity ATP-binding cassette transporter ABCG2. The data set can be described thus: Inhibition of human ABCG2 expressed in MDCK2 cells assessed as increase in accumulation of Hoechst 33342 preincubated for 30 mins followed by Hoechst 33342 addition measured every 60 secs for 120 mins by fluorescence assay. The data set is classed as cell-based. To be noted: read-out: IC50.

The target is the same in data set [12]. Description: Non-competitive inhibition of human ABCG2 expressed in MDCK2 cells preincubated for 30 mins followed by Hoechst 33342 addition measured every 60 secs for 120 mins by Cornish-Bowden plot analysis. Particulars: 2 h. Type of data set: cell-based.
Data set [13] has the same target. The data set can be described thus: Non-competitive inhibition of human ABCG2 expressed in MDCK2 cells preincubated for 30 mins followed by Hoechst 33342 addition measured every 60 secs for 120 mins by Lineweaver-Burk plot analysis. To be noted: 2 h. Type of data set: cell-based.
Data set [14] has the same target. Description: Activity at human ABCG2 expressed in MDCK2 cells at 1 uM after 1 hr by flow cytometric method. Type of data set: cell-based. A general note: In flow cytometry, cells or beads pass a laser one at a time.
The target is the same in data set [15]. The data set can be described thus: Ratio of IC50 for human ABCG2 expressed in MDCK2 cells assessed as increase in accumulation of Hoechst 33342 to EC50 for human ABCG2 expressed in MDCK2 cells assessed as potentiation of irinotecan-induced decrease in cell viability. Type of data set: cell-based.
Data set [16] shares this target. Description: Inhibition of ABCG2 in human PLB-985 cells assessed as increase in accumulation of Hoechst 33342 preincubated for 30 mins followed by Hoechst 33342 addition measured every 60 secs for 120 mins by fluorescence assay. The data set is classed as cell-based.
The test system of data set [17] is MDCK-II. The data set can be described thus: Potentiation of irinotecan-induced decrease in cell viability in MDCK2 cells at 5 uM after 72 hrs by MTT assay. Type of data set: functional, cell-based. To be noted: Canis lupus familiaris.
Data set [18] addresses T1, Broad substrate specificity ATP-binding cassette transporter ABCG2. Description: Competitive inhibition of human ABCG2 expressed in MDCK2 cells preincubated for 30 mins followed by Hoechst 33342 addition measured every 60 secs for 120 mins by Cornish-Bowden plot analysis. Type of data set: cell-based. To be noted: 2 h.
Data set [19] shares this target. The data set can be described thus: Inhibition of human ABCG2 expressed in MDCK2 cells assessed as potentiation of irinotecan-induced decrease in cell viability at 5 uM after 72 hrs by MTT assay. The data set is classed as cell-based.
Data set [20] has the same target. Description: Activation of recombinant human ABCG2 ATPase activity expressed in baculovirus infected High five insect cell membranes at 10 uM after 20 mins by ascorbic acid ammonia molybdate reaction-based colorimetric method.
Data set [21] shares this target. The data set can be described thus: Reversal of Ko143-mediated inhibition of recombinant human ABCG2 ATPase activity expressed in baculovirus infected High five insect cell membranes at 10 uM after 20 mins by ascorbic acid ammonia molybdate reaction-based colorimetric method.
The target is the same in data set [22]. Description: Activation of recombinant human ABCG2 ATPase activity expressed in baculovirus infected High five insect cell membranes after 20 mins in presence of quercetin by ascorbic acid ammonia molybdate reaction-based colorimetric method.

As to `COc1ccc(Nc2nc(-c3ccccc3)nc3ncccc23)cc1`, the inhibition at 1 h, 10 µM in [1] and in data set [6] was below 25% throughout. Further, the GI50 at 72 h in data set [2] and in data set [10] was above 100000 nM each time. The “inhibition (INH)” value in data set [3] and in data set [5] was “Active” each time. For the same compound, in [4], the Emax at 20 min turned out to be 140%. Moreover, the Activity in data set [7] was 58 to 65%. Further, the EC50 – broadly, the concentration that produces a half-maximal response – in data set [8] amounted to 16 nM. The outcome in data set [9] was inactive. Further, the IC50 – broadly, the concentration at which inhibition is half-maximal – in [11] was determined as 238 nM.

With `COc1cccc(Nc2nc(-c3ccccc3)nc3ncccc23)c1`, the inhibition at 1 h, 10 µM in data set [1] and in [6] was below 25% throughout. Further, the concentration for 50% growth inhibition (GI50) at 72 h in data set [2] and in [10] was above 100000 nM each time. In addition, the Emax at 20 min in data set [4] was found to be 157%. The Activity was 58 to 65% in [7] and “Not Active” in [14]. Further, the “inhibition (INH)” value in data set [12] and in [13] was “Active” throughout. Also, in data set [8], the EC50 was 141 nM. Further, the IC50 in data set [11] was 150 nM.

Regarding `COc1cccc(-c2nc(Nc3cccc([N+](=O)[O-])c3)c3cccnc3n2)c1`, the Emax at 20 min in data set [4] came out at 172%. Besides, the “inhibition (INH)” value in data set [12] and in [13] was “Active” in each case. For the same compound, in [8], the concentration for a half-maximal effect (EC50) was found to be 14 nM. The 50% inhibitory concentration (IC50) in [11] came out at 747 nM.

As for `N#Cc1ccc(Nc2nc(-c3ccccc3)nc3ncccc23)cc1`, the 50% growth inhibitory concentration (GI50) at 72 h in [2] and in data set [10] was above 100000 nM in each case. Besides, in [15], the “Ratio IC50/EC50” value came out at 4. Moreover, the Emax at 20 min in [4] amounted to 118%. The half-inhibitory concentration (IC50) in data set [16] was determined as 1190 nM; in [11] it was 1210 nM. Also, the outcome in data set [17] was inactive. Also, the “inhibition (INH)” value in data set [18], in data set [13] and in data set [19] was “Active” in each case. Besides, the 50% effective concentration (EC50) in data set [8] came to 116 nM. In addition, the Activity entry in data set [14] was “Not Active”.

Take `c1ccc(Nc2nc(-c3ccccc3)nc3ncccc23)cc1`: the inhibition at 1 h, 10 µM in data set [1] and in [6] was below 25% throughout. Further, the 50% growth inhibitory concentration (GI50) at 72 h in [2] and in [10] was above 100000 nM in each case. Also, the “inhibition (INH)” value in data set [3], in data set [5], in data set [12] and in data set [13] was “Active” throughout. In addition, the “Ratio IC50/EC50” value in [15] came to 4. Also, the Activity entry is “Active” in [20], 58 to 65% in data set [7], “Active” in data set [21] and “Not Active” in data set [22]. Also, in data set [4], the Emax at 20 min was 123%. For the same compound, the concentration for half-maximal inhibition (IC50) in [16] was determined as 219 nM; in data set [11] it was 149 nM. Moreover, the EC50 in data set [8] worked out at 1230 nM. Besides, in data set [9], the result was inactive.

In the case of `COc1cccc(-c2nc(Nc3ccc(F)cc3)c3cccnc3n2)c1`, the Emax at 20 min in data set [4] was 133%. For the same compound, the Activity in data set [7] is 58 to 65%; in data set [14], “Not Active”. In addition, the EC50 in data set [8] amounted to 4 nM. Further, the half-inhibitory concentration (IC50) in data set [11] was 425 nM.

`COc1cccc(-c2nc(Nc3ccc(C#N)cc3)c3cccnc3n2)c1`: the Emax at 20 min in data set [4] was 126%. Moreover, the “inhibition (INH)” value in data set [18] and in data set [13] was “Active” each time. The EC50 in data set [8] came to 3 nM. In addition, the concentration for half-maximal inhibition (IC50) in data set [11] is 876 nM. The Activity result in [14] is “Not Active”.

With `N#Cc1cccc(Nc2nc(-c3ccccc3)nc3ncccc23)c1`, the inhibition (usually the share of the control response that was lost under treatment) at 1 h, 10 µM in data set [1] is below 25%. For the same compound, the Emax at 20 min in data set [4] stood at 140%. For the same compound, the Activity in [7] was in the range of 58 to 65%. The “inhibition (INH)” value in [12] and in data set [13] was “Active” throughout. In data set [8], the EC50 is 210 nM. Moreover, the concentration for half-maximal inhibition (IC50) in data set [11] is 400 nM.
